According to US20200390902A1, “Antibody-Drug Conjugates Targeted at Human Aspartyl-(Asparaginyl)-B-Hydroxylase (HAAH)” (Panacea Pharmaceuticals, Inc., priority 2017, published 2020):
“Also recorded” adds a separate entry of the source.

What was measured:
[1] = tested on: MIA-PaCa-2 EV-derived tumors; test: Mouse model inoculated with pancreas cancer cells, MIA-PaCa-2 EV tumors; format: in vivo; conditions: 5 mg/kg, 29 days
Experimental: The efficacy and specificity of SNS622-MC-DM1 was first examined in the mouse model with inoculation of pancreas cancer cells. In this model. 5 to 6-week-old female Nod Scid Gamma (NSG) mice (The Jackson Laboratory, Bar Harbor, Me., U.S.A.) were subcutaneously inoculated with 5×10^5 MIA-PaCa-2 EV cells (MIA-PaCa-2 cells transduced with an empty lentivirus vector) in 100 μl buffer solution on one shoulder, and with 5×10^5 MIA-PaCa-2 ASPH cells (MIA-PaCa-2 cells expressing high levels of ASPH) in 100 μl buffer solution on the other shoulder Two weeks post-inoculation, SNS622-MC-DM1 or IgG1-MC-DM1 was injected at 5 mg/kg through a tail vein once a week for 4 weeks. A representation of the schedule used for the ADC treatments is show n in FIG. 13.
The response to treatment with SNS622-MC-DM1 of tumors derived from MIA-PaCa-2 HAAH cells and from MIA-PaCa-2 EV cells were compared in the same mouse.

[2] = tested on: metastatic nodules in the lungs (PDAC PDx); test: PDx model of PDAC, lung metastasis; format: in vivo, mouse; conditions: 1.9 mg/kg, after 6 weeks of administration
From the text: Pancreatic ductular adenocarcinoma (PDAC) is a highly lethal malignancy with limited treatment options. HAAH is a cell surface protein that is highly expressed in […] of PDACs. The specificity of SNS622-MC-DM1 was next examined in the patient-derived xenograft (PDx) mouse model PDAC. The patient-derived xenograft (PDx) murine model was established by using surgically resected PDAC (from Rhode Island Hospital, Providence, R.I., U.S.A.). Five to six-week-old female Nod Scid Gamma (NSG) mice were employed. […] Body weight and tumor size were measured twice a week and tumor volume was calculated using the modified ellipsoid formula (0.5×length×width^2). To determine the effect of SNS622-MC-DM1 on lung metastasis, all lung tissues were immersed in Bouin's fixative solution (Sigma-Aldrich, St. Louis, Mo., U.S.A.; catalog No, HT10132) and metastatic nodules on the surface of the lungs were counted. […]
This phenotype was maintained in the PDx model of NSG mouse. […] In this context, dose and period of administration of PAN-622 or SNS622-MC-DM1 for treatment of NSG mice was reduced to 1.9 mg/kg and the development and growth of metastatic nodules in the lungs after the treatment was assessed After 6 weeks of administration, the number of macroscopic metastatic nodules on the lung surface was determined.

With “SNS622-MC-DM1: SNS622 anti-HAAH monoclonal antibody conjugated to mertansine (DM1) by the non-cleavable linker maleimidocaproyl (MC)” the “Effect on MIA-PaCa-2 EV tumor growth” value [1] was “grew fast throughout the duration of the experiment; also recorded: much lower effect on tumors derived from MIA-PaCa-2 EV cells”, the “Mean number of nodules per animal” value [2] was 3.25 and the “Total number of metastatic nodules in group” value [2] was “approximately 35”.
